Measurements taken from PubChem BioAssay (NCI).
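All cell lines were grown in 96-well plates and treated with compound for 48 hours. GI50 is the concentration that inhibits growth by half. TGI: concentration producing complete growth inhibition.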

How the values were obtained:
Experiment in all cases: growth of human tumour cells (NCI), 48 h
[1] = test system: 786-0 renal
[2] = test system: A498 renal
[3] = test system: A549 NSCLC
[4] = test system: ACHN renal
[5] = test system: BT-549 breast
[6] = test system: CAKI-1 renal
[7] = test system: CCRF-CEM leukemia
[8] = test system: COLO 205 colon
[9] = test system: DU-145 prostate
[10] = test system: EKVX NSCLC
[11] = test system: HCC-2998 colon
[12] = test system: HCT-116 colon
[13] = test system: HCT-15 colon
[14] = test system: HL-60(TB) leukemia
[15] = test system: HOP-62 NSCLC
[16] = test system: HOP-92 NSCLC
[17] = test system: HS 578T breast
[18] = test system: HT29 colon
[19] = test system: IGROV1 ovarian
[20] = test system: K-562 leukemia
[21] = test system: KM12 colon
[22] = test system: LOX IMVI melanoma
[23] = test system: M14 melanoma
[24] = test system: MCF7 breast
[25] = test system: MDA-MB-231 breast
[26] = test system: MDA-MB-435
[27] = test system: MOLT-4 leukemia
[28] = test system: NCI-H226 lung
[29] = test system: NCI-H23 lung
[30] = test system: NCI-H460 lung
[31] = test system: NCI-H522 lung
[32] = test system: NCI/ADR-RES ovarian
[33] = test system: OVCAR-3 ovarian
[34] = test system: OVCAR-4 ovarian
[35] = test system: OVCAR-5 ovarian
[36] = test system: OVCAR-8 ovarian
[37] = test system: PC-3 prostate
[38] = test system: RPMI-8226 leukemia
[39] = test system: RXF 393 renal
[40] = test system: SF-268 CNS
[41] = test system: SF-295 CNS
[42] = test system: SF-539 CNS
[43] = test system: SK-MEL-28 melanoma
[44] = test system: SK-MEL-5 melanoma
[45] = test system: SK-OV-3 ovarian
[46] = test system: SN12C renal
[47] = test system: SNB-19 CNS
[48] = test system: SNB-75 CNS
[49] = test system: SR leukemia
[50] = test system: SW-620 colon
[51] = test system: T-47D breast
[52] = test system: TK-10 renal
[53] = test system: U251 CNS
[54] = test system: UACC-257 melanoma
[55] = test system: UACC-62 melanoma
[56] = test system: UO-31 renal

COc1ccc(Cn2cc3c(c2-c2ccc(OC)cc2)CCc2cnoc2-3)cc1
GI50 [1]: 658 nM
TGI [1]: > 100000 nM
GI50 [2]: 213 nM
TGI [2]: 749 nM
GI50 [3]: 582 nM
TGI [3]: > 100000 nM
GI50 [4]: 892 nM
TGI [4]: > 100000 nM
GI50 [5]: 760 nM
TGI [5]: > 100000 nM
GI50 [6]: 309 nM
TGI [6]: > 100000 nM
GI50 [7]: 364 nM
TGI [7]: > 100000 nM
GI50 [8]: 296 nM
TGI [8]: 815 nM
GI50 [9]: 350 nM
TGI [9]: 2710 nM
GI50 [10]: 523 nM
TGI [10]: > 100000 nM
GI50 [11]: 846 nM
TGI [11]: 5920 nM
GI50 [12]: 451 nM
TGI [12]: > 100000 nM
GI50 [13]: 506 nM
TGI [13]: > 100000 nM
GI50 [14]: 282 nM
TGI [14]: 1170 nM
GI50 [15]: 539 nM
TGI [15]: > 100000 nM
GI50 [16]: 1120 nM
TGI [16]: > 100000 nM
GI50 [17]: 301 nM
TGI [17]: 1140 nM
GI50 [18]: 309 nM
TGI [18]: 1240 nM
GI50 [19]: 775 nM
TGI [19]: > 100000 nM
GI50 [20]: 349 nM
TGI [20]: > 100000 nM
GI50 [21]: 376 nM
TGI [21]: 2350 nM
GI50 [22]: 706 nM
TGI [22]: > 100000 nM
GI50 [23]: 404 nM
TGI [23]: > 33200 nM
GI50 [24]: 389 nM
TGI [24]: > 100000 nM
GI50 [25]: 1410 nM
TGI [25]: > 53700 nM
GI50 [26]: 181 nM
TGI [26]: 480 nM
GI50 [27]: 504 nM
TGI [27]: > 35000 nM
GI50 [28]: 1360 nM
TGI [28]: > 100000 nM
GI50 [29]: 519 nM
TGI [29]: > 100000 nM
GI50 [30]: 347 nM
TGI [30]: 1960 nM
GI50 [31]: 199 nM
TGI [31]: 572 nM
GI50 [32]: 270 nM
TGI [32]: 4080 nM
GI50 [33]: 259 nM
TGI [33]: 620 nM
GI50 [34]: 930 nM
TGI [34]: > 100000 nM
GI50 [35]: 2680 nM
TGI [35]: > 100000 nM
GI50 [36]: 621 nM
TGI [36]: > 100000 nM
GI50 [37]: 602 nM
TGI [37]: > 100000 nM
GI50 [38]: 336 nM
GI50 [39]: 322 nM
GI50 [40]: 686 nM
TGI [40]: > 100000 nM
GI50 [41]: 270 nM
TGI [41]: 960 nM
GI50 [42]: 307 nM
TGI [42]: 2130 nM
GI50 [43]: 804 nM
TGI [43]: > 100000 nM
GI50 [44]: 343 nM
TGI [44]: 4710 nM
GI50 [45]: 571 nM
TGI [45]: > 100000 nM
GI50 [46]: 795 nM
TGI [46]: > 100000 nM
GI50 [47]: 679 nM
TGI [47]: > 100000 nM
GI50 [48]: 216 nM
TGI [48]: 804 nM
GI50 [49]: 331 nM
TGI [49]: 1940 nM
GI50 [50]: 353 nM
TGI [50]: > 100000 nM
GI50 [51]: 533 nM
TGI [51]: > 100000 nM
GI50 [52]: 616 nM
TGI [52]: > 100000 nM
GI50 [53]: 444 nM
TGI [53]: > 100000 nM
GI50 [54]: 1570 nM
TGI [54]: > 100000 nM
GI50 [55]: 547 nM
TGI [55]: > 100000 nM
GI50 [56]: 797 nM
TGI [56]: > 100000 nM
